Literature values in patent US6576673B2, “Method of deterring woodpeckers” (priority 2001, dated 2003).

Test system: golden fronted adult woodpeckers
Details: painted or applied to a surface of a utility pole; smaller golden fronted adult woodpeckers

CC1=CC(=O)CC(C)(C)C1 [Isophorone, 3,5,5-trimethyl-2-cyclohexen-one-1]
repelling woodpeckers: effective in repelling woodpeckers
